Laboratory results: patent US6046228A, “Anti-viral pharmaceutical compositions containing saturated 1,2-dithiaheterocyclic compounds and uses thereof” (priority 1999, dated 2000)
pEC50, pIC50: −log10 of the molar value. Read-outs that look alike come from different tables or passages of the source.

Tests used:
HIV-1RF = experiment: XTT cytoprotection (cytopathicity) anti-HIV assay, CEM-SS cells; format: cell-based; conditions: for pEC50: Human immunodeficiency virus 1, CEM-SS; for antiviral activity / efficacy: in words
Experimental: (§1) Initial anti-HIV screening was performed with CEM-SS cells and HIV-1RFusing the XTT cytoprotection assay as previously described (Weislow et al., J. National Cancer Inst. 81: 577-586, (1989)). HIV-1 isolates included common laboratory stains (RF, IIIB and MN), as well as a panel of HIV-1 clinical isolates (Cushman et al., J. Med. Chem. 37: 3040-3050, (1994)). The pyridone-resistant HIV-1A17 isolate (Nunberg et al., J. Virol., 65: 4887-4892 (1991)) was obtained from Emilio Emini at Merck Sharpe and Dohme Laboratories. Phytohemagglutinin-stimulated human peripheral blood lymphocytes (PBLs) and fresh monocyte-macrophage (Mono/MF) cultures were prepared and utilized in antiviral assays as previously described (Rice et al., Proc. Nat'l. Academy Science, USA 90: 9721-9724, (1993)); (Cushman et al., J. Med. Chem. 37: 3040-3050, (1994)). EC50 values for these cultures indicate the drug concentration that provided a 50% reduction in viral p24 production. […] The compounds can be synthesized according to the teachings of Singh et al., Sulfur Letters 8: 107-114, (1988). […] MT-2, MT-4, U1, HeLa-CD4-LTR-β-gal and 174xCEM cells were obtained from the AIDS Research and Reference Program (National Institute of Allergy and Infectious Disease, National Institutes of Health, Bethesda, Md. USA), as were the HIV-2MS and the AZT-resistant HIV-1G910-6 isolates.
(§2) Racemate and enantiomers of the cis-1,1-dioxo[1,2]dithiane-4,5-diol were synthesized and evaluated for antiviral activity in the XTT assay as described hereinabove.

CEM-SS cells = experiment: XTT assay, cytotoxicity (IC50), CEM-SS cells; format: cell-based; conditions: Homo sapiens, CEM-SS, cytotoxicity, CEM-SS cells; read-out: XTT Assay IC50
Experimental: as §1, §2

HIV-1ADA = experiment: antiviral assay in monocyte-macrophage cultures (p24); format: cell-based; conditions: Human immunodeficiency virus 1, read-out: Mo/M.PHI. EC50
Experimental: Initial anti-HIV screening was performed with CEM-SS cells and HIV-1RFusing the XTT cytoprotection assay as previously described (Weislow et al., J. National Cancer Inst. 81: 577-586, (1989)). HIV-1 isolates included common laboratory stains (RF, IIIB and MN), as well as a panel of HIV-1 clinical isolates (Cushman et al., J. Med. Chem. 37: 3040-3050, (1994)). The pyridone-resistant HIV-1A17 isolate (Nunberg et al., J. Virol., 65: 4887-4892 (1991)) was obtained from Emilio Emini at Merck Sharpe and Dohme Laboratories. Phytohemagglutinin-stimulated human peripheral blood lymphocytes (PBLs) and fresh monocyte-macrophage (Mono/MF) cultures were prepared and utilized in antiviral assays as previously described (Rice et al., Proc. Nat'l. Academy Science, USA 90: 9721-9724, (1993)); (Cushman et al., J. Med. Chem. 37: 3040-3050, (1994)). EC50 values for these cultures indicate the drug concentration that provided a 50% reduction in viral p24 production. […] The compounds can be synthesized according to the teachings of Singh et al., Sulfur Letters 8: 107-114, (1988). The 4,5-cis-dihydroxy(1,1-dioxy-1,2,-dithiohexane) compound (NSC 624151) has been abbreviated as 624151 for convenience. MT-2, MT-4, U1, HeLa-CD4-LTR-β-gal and 174xCEM cells were obtained from the AIDS Research and Reference Program (National Institute of Allergy and Infectious Disease, National Institutes of Health, Bethesda, Md. USA), as were the HIV-2MS and the AZT-resistant HIV-1G910-6 isolates. […]

[1] = test system: monocyte-macrophage (Mo/M.PHI.) cultures; experiment: cytotoxicity in monocyte-macrophage cultures; format: cell-based
Experimental: Initial anti-HIV screening was performed with CEM-SS cells and HIV-1RFusing the XTT cytoprotection assay as previously described (Weislow et al., J. National Cancer Inst. 81: 577-586, (1989)). HIV-1 isolates included common laboratory stains (RF, IIIB and MN), as well as a panel of HIV-1 clinical isolates (Cushman et al., J. Med. Chem. 37: 3040-3050, (1994)). The pyridone-resistant HIV-1A17 isolate (Nunberg et al., J. Virol., 65: 4887-4892 (1991)) was obtained from Emilio Emini at Merck Sharpe and Dohme Laboratories. Phytohemagglutinin-stimulated human peripheral blood lymphocytes (PBLs) and fresh monocyte-macrophage (Mono/MF) cultures were prepared and utilized in antiviral assays as previously described (Rice et al., Proc. Nat'l. Academy Science, USA 90: 9721-9724, (1993)); (Cushman et al., J. Med. Chem. 37: 3040-3050, (1994)). EC50 values for these cultures indicate the drug concentration that provided a 50% reduction in viral p24 production. […] The compounds can be synthesized according to the teachings of Singh et al., Sulfur Letters 8: 107-114, (1988). The 4,5-cis-dihydroxy(1,1-dioxy-1,2,-dithiohexane) compound (NSC 624151) has been abbreviated as 624151 for convenience. MT-2, MT-4, U1, HeLa-CD4-LTR-β-gal and 174xCEM cells were obtained from the AIDS Research and Reference Program (National Institute of Allergy and Infectious Disease, National Institutes of Health, Bethesda, Md. USA), as were the HIV-2MS and the AZT-resistant HIV-1G910-6 isolates.

HIV-1 p7NC protein = molecular target: T1, HIV-1 p7NC protein (Human immunodeficiency virus type 1 group M subtype B, UniProt P04591); experiment: Trp37 zinc finger fluorescence assay (zinc ejection from p7NC); format: biochemical; conditions: in words; for zinc ejection: FIG. 1(A)
T1 construct: recombinant HIV-1 p7NC protein
Experimental: Fluorescence measurements of the Trp^37 residue in the C-terminal zinc finger of the recombinant HIV-1 p7NC protein were performed as previously described (Rice et al., Science 270:1194, 1995). The p7NC protein was prepared at 20 μg/ml in 10 mM sodium phosphate buffer (pH 7.0), treated with 25 μM of each compound, then after indicated time intervals the samples were diluted 1/10 in 10 mM sodium phosphate buffer (pH 7.0) and the fluorescence intensity measured. The excitation and emission wavelengths utilized with the Shimadzu RF5000 spectrofluorimeter were 280 nm and 351 nm, respectively. In an alternate assay, the zinc-selective fluorescent probe N-(6-methoxy-8quinolyl-)-p-toluenesulfonamide (TSQ, Molecular Probes, Eugene, Oreg.) originally described by Fredrickson (J. Neurosci. Meth. 20:91, 1987) was utilized to measure zinc released from the p7NC protein in vitro. Briefly, 2 μM recombinant HIV-1 p7NC protein in 10 mM sodium phosphate buffer, pH 7.0, 10% glycerol was treated with 10 μM 624151 ([…] total volume in 96-well plates), and the time-dependent increase in fluorescence was measured on a Labsystems Fluoroskan II (360 nm excitation filter and 460 nm emission filter) over a period of 2 hours. Induction of alterations of p7NC proteins within intact virions involved treatment of HIV-1MN for 1 hour at 37° C. with 25 μM test compound. Samples were centrifuged 1 hour at 4° C. under 18,000×g to pellet the virus from the drug. Virus pellets were resolved by non-reducing SDS-PAGE and analyzed by immunoblot using monospecific rabbit antisera to the purified p7NC protein.
^b The percent decrease in RFU was calculated based on measurement of
the initial fluorescence of the p7NC protein before and 10 minutes after
treatment with the 25 μM of compound at ambient temperature.
The ability of 624151 to chemically interact with the zinc fingers of the HIV-1 p7NC protein was initially determined by a fluorescence assay (Rice et al., Science 270:1194-1197, (1995)) that measures a loss in intrinsic fluorescence of the tryptophan (Trp^37) residue in the second finger of the protein that occurs upon loss of zinc from the finger (Summers et al., Protein Sci. 1:563, 1992). […] As the 624151 modifies the zinc finger thiolates and the zinc is ejected over time, the metal is bound by the TSQ fluorochrome (FIG. 1(B)).
Sodium Phosphate buffer, pH 7.0 in 1 ml was treated with 25 μM of
compound. At indicated times, the mixture was diluted 1/10 and the
relative fluorescence units (RFU) measured in a Shimadzu RF5000
spectrofluorimeter with […] and Em = 351 mn. Following
loss of zinc from the Cterminal zinc finger, the Trp37 residue folds away
from the # aqueous environment and experiences a loss of fluorescence.

[2] = CEM-SS cells, HIV-1RF, read-out: XTT Assay EC50

Row | SMILES | pIC50 (CEM-SS cells) | pEC50 (HIV-1ADA) | pIC50 [1] | further results
1 | NC(=O)NN=C1CSSC1 [NSC 208744] | 3.90 |  |  | pEC50 (HIV-1RF; [2]): 4.54
2 | O=C1NC(=O)C2(CSSC2)N1 [NSC 208750] | 4.61 |  |  | pEC50 (HIV-1RF; [2]): 5.74
3 | CC(=O)OCC1(COC(C)=O)CSS(=O)(=O)C1 [NSC 661126] | 4.52 | 4.68 | < 4.00 | pEC50 (HIV-1RF; [2]): 5.01
4 | CC(=O)OCC1(COC(C)=O)CSSC1 [NSC 660167] | < 3.70 | < 4.00 | < 4.00 | 
5 | CC(=O)O[C@H]1CSS(=O)(=O)C[C@H]1OC(C)=O (relative stereo) [NSC 667091] | 5.04 | 4.60 | < 4.00 | 
6 | CC(=O)OCC1(COC(C)=O)CS[S+]([O-])C1 (stereo not drawn) [NSC 661754] | 4.84 | < 4.00 | < 4.00 | 
7 | CC(=O)O[C@@H]1CSSC[C@H]1OC(C)=O (relative stereo) [NSC 667092] | < 3.70 | < 4.00 | < 4.00 | antiviral activity / efficacy (HIV-1RF): complete abolition of antiviral activity; reactivity with the zinc fingers (HIV-1 p7NC protein): essentially a complete loss of reactivity with the zinc fingers
8 | O[C@@H]1CSSC[C@@H]1O [NSC 667089] | 4.70 | < 4.00 | < 4.00 | 
9 | O=S1(=O)CCCCS1 [NSC 627175] | 5.24 | 4.60 | < 4.00 | 
10 | OCC1(CO)CSSC1 [NSC 72270] | < 3.70 | < 4.00 | < 4.00 | 
11 | O=C(O)CCCCC1CCSS1 (stereo not drawn) [NSC 628502] | < 2.92 |  |  | pEC50 (HIV-1RF; read-out: XTT Assay EC50, CEM-SS cells, HIV-1RF): 3.23
12 | CC(=O)O[C@H]1CSSC[C@H]1OC(C)=O [NSC 667093] | < 3.70 | < 4.00 | < 4.00 | 
13 | [O-][S+]1C[C@@H](O)[C@H](O)CS1 (relative stereo) [NSC 663603] | 4.23 | < 4.00 | < 4.00 | 
14 | NC1(C(=O)O)CSSC1 [NSC 212561] | 4.97 |  |  | pEC50 (HIV-1RF; [2]): 5.51
15 | CSC[C@H](NC(=O)COc1cccc2cnccc12)C(=O)N[C@@H](Cc1ccccc1)[C@H](O)C(=O)N1CSC[C@H]1C(=O)NC(C)(C)C [KNI-272, reference compound] |  |  |  | zinc ejection (HIV-1 p7NC protein): do not
16 | CC(C)OC(=O)c1cc(NC(=S)OC(C)C)ccc1Cl [UC38, reference compound] |  |  |  | zinc ejection (HIV-1 p7NC protein): do not
17 | O=S1(=O)CC(CO)(CO)CS1 [NSC 661127] | 3.42 |  |  | pEC50 (HIV-1RF; [2]): 4.47
18 | O[C@@H]1CSSC[C@H]1O (relative stereo) [NSC 663605] | < 3.70 | < 4.00 | < 4.00 | 
19 | [O-][S+]1C[C@@H](O)[C@@H](O)CS1 (relative stereo) [NSC 667090] | 3.99 | < 4.00 | < 4.00 | antiviral activity / efficacy (HIV-1RF): complete abolition of antiviral activity; reactivity with the zinc fingers (HIV-1 p7NC protein): essentially a complete loss of reactivity with the zinc fingers
20 | CC(=O)O[C@@H]1CS[S+]([O-])C[C@H]1OC(C)=O (relative stereo) [NSC 667094] | 4.66 | 5.26 | < 4.00 | 
21 | [O-][S+]1CCCCS1 (stereo not drawn) [NSC 56224] | 4.58 | < 4.00 | < 4.00 | 
22 | Nc1ccn([C@H]2CC[C@@H](CO)O2)c(=O)n1 [DDC, reference compound] |  |  |  | zinc ejection (HIV-1 p7NC protein): do not
23 | [O-][S+]1CC(CO)(CO)CS1 (stereo not drawn) [NSC 661753] | < 3.70 | 4.34 | < 4.00 | 
